Molecular target: PIK3CG (human) (UniProt P48736)
Experiment: Inhibition of PIK3CG Kinase Activity

PIK3CG (human), sequence (P48736 whole entry, looked up): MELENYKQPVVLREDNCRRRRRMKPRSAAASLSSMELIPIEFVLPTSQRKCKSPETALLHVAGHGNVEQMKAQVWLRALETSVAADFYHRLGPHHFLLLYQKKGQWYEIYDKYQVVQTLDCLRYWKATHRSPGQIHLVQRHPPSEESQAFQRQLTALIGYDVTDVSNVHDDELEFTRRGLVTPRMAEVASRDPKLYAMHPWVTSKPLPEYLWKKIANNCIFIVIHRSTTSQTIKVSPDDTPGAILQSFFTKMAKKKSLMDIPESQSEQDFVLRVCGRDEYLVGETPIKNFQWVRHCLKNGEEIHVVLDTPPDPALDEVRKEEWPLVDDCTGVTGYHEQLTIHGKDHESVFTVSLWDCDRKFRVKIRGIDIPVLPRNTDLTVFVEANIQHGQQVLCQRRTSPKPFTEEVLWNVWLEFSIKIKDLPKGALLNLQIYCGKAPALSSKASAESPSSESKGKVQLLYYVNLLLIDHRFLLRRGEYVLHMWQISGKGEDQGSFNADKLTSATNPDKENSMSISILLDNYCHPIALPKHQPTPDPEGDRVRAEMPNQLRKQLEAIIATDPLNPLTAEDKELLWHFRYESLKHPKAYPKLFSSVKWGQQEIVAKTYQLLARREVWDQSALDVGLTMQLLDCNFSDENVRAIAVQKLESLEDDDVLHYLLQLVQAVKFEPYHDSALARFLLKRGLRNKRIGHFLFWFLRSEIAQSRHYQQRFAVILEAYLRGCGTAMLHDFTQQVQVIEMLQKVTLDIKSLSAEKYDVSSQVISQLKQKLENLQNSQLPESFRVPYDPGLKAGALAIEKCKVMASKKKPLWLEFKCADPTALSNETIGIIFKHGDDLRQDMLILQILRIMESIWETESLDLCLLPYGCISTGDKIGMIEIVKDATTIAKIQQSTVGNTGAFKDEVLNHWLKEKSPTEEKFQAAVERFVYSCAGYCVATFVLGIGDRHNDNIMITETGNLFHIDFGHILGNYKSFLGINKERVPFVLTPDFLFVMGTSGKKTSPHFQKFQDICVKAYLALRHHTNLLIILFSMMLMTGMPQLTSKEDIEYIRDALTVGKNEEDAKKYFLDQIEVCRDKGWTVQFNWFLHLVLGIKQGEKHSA

**Q.** With O=C(NCc1ccccc1)Nc1nc2c(s1)-c1c(cnn1-c1ccccc1C(F)(F)F)C2 as the compound, how does the IC50 read?
**A.** Its IC50 is < 0.8 µM.

**Q.** For Nc1cc(CNC(=O)Nc2nc3c(s2)-c2c(cnn2-c2ccccc2C(F)(F)F)C3)nn1-c1ccccc1, which IC50 is on record?
**A.** Its IC50 is < 0.8 µM.

**Q.** How did the IC50 turn out when NC(=O)c1cccc(CNC(=O)Nc2nc3c(s2)-c2c(cnn2-c2ccccc2Cl)C3)c1 was run?
**A.** The IC50 was < 0.8 µM.

**Q.** How did the IC50 turn out when CCOC(=O)Cn1nc(CCNC(=O)Nc2nc3c(s2)-c2c(cnn2-c2ccccc2C(F)(F)F)C3)cc1N was run?
**A.** Its IC50 is < 0.8 µM.

**Q.** For CC(C)c1nnc(CCNC(=O)Nc2nc3c(s2)-c2c(cnn2-c2ccccc2Cl)C3)o1, which IC50 is on record?
**A.** The IC50 was < 0.8 µM.

**Q.** For CC(C)(C)OC(=O)N1CCC[C@@H]1CNC(=O)Nc1nc2c(s1)-c1c(cnn1-c1ccccc1Cl)C2, which IC50 is on record?
**A.** The IC50 was < 0.8 µM.

**Q.** For CCNC(=O)Nc1c(CCNC(=O)Nc2nc3c(s2)-c2c(cnn2-c2ccccc2C(F)(F)F)C3)cnn1C, which IC50 is on record?
**A.** Its IC50 is < 0.8 µM.

**Q.** CCNC(=O)Nc1nc2c(s1)-c1c(cnn1-c1ccccc1C(F)(F)F)C2 was tested. Which IC50 did it give?
**A.** Its IC50 is < 0.8 µM.

**Q.** With O=C(NCc1ccccc1)Nc1nc2c(s1)-c1c(cnn1-c1ccccc1Cl)C2 as the compound, how does the IC50 read?
**A.** Its IC50 is < 0.8 µM.

**Q.** For O=C1Cc2ccccc2CN1CC1CCN(C(=O)Nc2nc3c(s2)-c2c(cnn2-c2ccccc2Cl)C3)C1 (stereo not drawn), which IC50 is on record?
**A.** Its IC50 is < 0.8 µM.

**Q.** How did the IC50 turn out when CN(C)C(=O)CNC(=O)Nc1nc2c(s1)-c1c(cnn1-c1cc(Cl)ccc1Cl)C2 was run?
**A.** The IC50 was < 0.8 µM.

**Q.** How did the IC50 turn out when Cc1cc(=O)n(CCNC(=O)Nc2nc3c(s2)-c2c(cnn2-c2ccccc2C(F)(F)F)C3)[nH]1 was run?
**A.** The IC50 was < 0.8 µM.

**Q.** CCCNC(=O)Nc1nc2c(s1)-c1c(cnn1-c1ccccc1C(F)(F)F)C2 was tested. Which IC50 did it give?
**A.** Its IC50 is < 0.8 µM.

**Q.** How did the IC50 turn out when Nc1cc(-c2ccccc2)nn1CCNC(=O)Nc1nc2c(s1)-c1c(cnn1-c1ccccc1C(F)(F)F)C2 was run?
**A.** The IC50 was < 0.8 µM.

**Q.** How did the IC50 turn out when CC(C)NC(=O)Nc1nc2c(s1)-c1c(cnn1-c1ccccc1C(F)(F)F)C2 was run?
**A.** Its IC50 is < 0.8 µM.

**Q.** With Cc1cc(-c2ccco2)n(CCNC(=O)Nc2nc3c(s2)-c2c(cnn2-c2ccccc2C(F)(F)F)C3)n1 as the compound, how does the IC50 read?
**A.** Its IC50 is < 0.8 µM.

**Q.** For O=C(NCc1ccsc1)Nc1nc2c(s1)-c1c(cnn1-c1ccccc1C(F)(F)F)C2, which IC50 is on record?
**A.** Its IC50 is < 0.8 µM.

**Q.** With CC(C)CCNC(=O)Nc1nc2c(s1)-c1c(cnn1-c1ccccc1Cl)C2 as the compound, how does the IC50 read?
**A.** The IC50 was < 0.8 µM.

**Q.** O=C(NCc1nccs1)Nc1nc2c(s1)-c1c(cnn1-c1ccccc1C(F)(F)F)C2 was tested. Which IC50 did it give?
**A.** The IC50 was < 0.8 µM.

**Q.** CC(C)(C)c1cc(N)n(CCNC(=O)Nc2nc3c(s2)-c2c(cnn2-c2ccccc2C(F)(F)F)C3)n1 was tested. Which IC50 did it give?
**A.** The IC50 was < 0.8 µM.

**Q.** How did the IC50 turn out when O=C(NCc1cc(C2CC2)n[nH]1)Nc1nc2c(s1)-c1c(cnn1-c1ccccc1Cl)C2 was run?
**A.** Its IC50 is < 0.8 µM.

**Q.** For CCNC(=O)Nc1nc2c(s1)-c1c(cnn1-c1ccccc1Br)C2, which IC50 is on record?
**A.** The IC50 was < 0.8 µM.

**Q.** Which IC50 does the source give for O=C(NCc1ccco1)Nc1nc2c(s1)-c1c(cnn1-c1ccccc1C(F)(F)F)C2 here?
**A.** The IC50 was < 0.8 µM.

**Q.** For O=C(NCCN1CCOCC1)Nc1nc2c(s1)-c1c(cnn1-c1ccccc1Br)C2, which IC50 is on record?
**A.** The IC50 was < 0.8 µM.

**Q.** For CCn1cnc(CCNC(=O)Nc2nc3c(s2)-c2c(cnn2-c2ccccc2Cl)C3)c1, which IC50 is on record?
**A.** Its IC50 is < 0.8 µM.

**Q.** O=C(Nc1nc2c(s1)-c1c(cnn1-c1ccccc1Cl)C2)N1CCCC(c2ccccc2O)C1 (stereo not drawn) was tested. Which IC50 did it give?
**A.** The IC50 was < 0.8 µM.

**Q.** How did the IC50 turn out when Cc1cc(C2CCCCC2)n(CCNC(=O)Nc2nc3c(s2)-c2c(cnn2-c2ccccc2C(F)(F)F)C3)n1 was run?
**A.** The IC50 was < 0.8 µM.

**Q.** With CC(C)CNC(=O)Nc1nc2c(s1)-c1c(cnn1-c1ccccc1Cl)C2 as the compound, how does the IC50 read?
**A.** The IC50 was < 0.8 µM.

**Q.** With CC(C)(CNc1ccc(C(C)(C)C)cc1)NC(=O)Nc1nc2c(s1)-c1c(cnn1-c1ccccc1Cl)C2 as the compound, how does the IC50 read?
**A.** Its IC50 is < 0.8 µM.

**Q.** NC(=O)Nc1nc2c(s1)-c1c(cnn1-c1cccc(F)c1C(F)(F)F)C2 was tested. Which IC50 did it give?
**A.** Its IC50 is < 0.8 µM.

**Q.** With O=C(Nc1nc2c(s1)-c1c(cnn1-c1ccccc1Cl)C2)N1CCCC(c2nc3ccccc3[nH]2)C1 (stereo not drawn) as the compound, how does the IC50 read?
**A.** Its IC50 is < 0.8 µM.

**Q.** How did the IC50 turn out when CCCNC(=O)Nc1nc2c(s1)-c1c(cnn1-c1cc(Cl)ccc1Cl)C2 was run?
**A.** The IC50 was < 0.8 µM.

**Q.** How did the IC50 turn out when O=C(NCc1ncc[nH]1)Nc1nc2c(s1)-c1c(cnn1-c1ccccc1Cl)C2 was run?
**A.** The IC50 was < 0.8 µM.

**Q.** For O=C1CCC(NC(=O)Nc2nc3c(s2)-c2c(cnn2-c2ccccc2Cl)C3)C(c2ccccc2)N1 (stereo not drawn), which IC50 is on record?
**A.** The IC50 was < 0.8 µM.

**Q.** How did the IC50 turn out when Cc1onc(-c2ccccc2)c1CNC(=O)Nc1nc2c(s1)-c1c(cnn1-c1ccccc1C(F)(F)F)C2 was run?
**A.** The IC50 was < 0.8 µM.

**Q.** Which IC50 does the source give for CC(C)(C)OC(=O)CCNC(=O)Nc1nc2c(s1)-c1c(cnn1-c1ccccc1Br)C2 here?
**A.** Its IC50 is < 0.8 µM.

**Q.** With Cn1nc(CCNC(=O)Nc2nc3c(s2)-c2c(cnn2-c2ccccc2C(F)(F)F)C3)cc1N as the compound, how does the IC50 read?
**A.** The IC50 was < 0.8 µM.

**Q.** Which IC50 does the source give for O=C(Nc1nc2c(s1)-c1c(cnn1-c1ccccc1Cl)C2)N1CCC(n2cnc3ccccc32)CC1 here?
**A.** Its IC50 is < 0.8 µM.

— the Kinase Knowledgebase extract (Sharma et al. 2016)
